Source: patent US9242987B2, “Heterocyclyl pyrazolopyrimidine analogues as JAK inhibitors” (Cellzome Limited, priority 2009, dated 2016)

Assays:
JAK3 = target: T1, JAK3 (Homo sapiens, UniProt P52333); assay: Kinobeads assay, JAK3; type: binding; conditions: mixed Molt4/Ramos cell lysate, dot blot detection
T1 construct: endogenous in cells; host or cells: Mixed Molt4/Ramos lysate (1:2)
T1 sequence (P52333 1-1124): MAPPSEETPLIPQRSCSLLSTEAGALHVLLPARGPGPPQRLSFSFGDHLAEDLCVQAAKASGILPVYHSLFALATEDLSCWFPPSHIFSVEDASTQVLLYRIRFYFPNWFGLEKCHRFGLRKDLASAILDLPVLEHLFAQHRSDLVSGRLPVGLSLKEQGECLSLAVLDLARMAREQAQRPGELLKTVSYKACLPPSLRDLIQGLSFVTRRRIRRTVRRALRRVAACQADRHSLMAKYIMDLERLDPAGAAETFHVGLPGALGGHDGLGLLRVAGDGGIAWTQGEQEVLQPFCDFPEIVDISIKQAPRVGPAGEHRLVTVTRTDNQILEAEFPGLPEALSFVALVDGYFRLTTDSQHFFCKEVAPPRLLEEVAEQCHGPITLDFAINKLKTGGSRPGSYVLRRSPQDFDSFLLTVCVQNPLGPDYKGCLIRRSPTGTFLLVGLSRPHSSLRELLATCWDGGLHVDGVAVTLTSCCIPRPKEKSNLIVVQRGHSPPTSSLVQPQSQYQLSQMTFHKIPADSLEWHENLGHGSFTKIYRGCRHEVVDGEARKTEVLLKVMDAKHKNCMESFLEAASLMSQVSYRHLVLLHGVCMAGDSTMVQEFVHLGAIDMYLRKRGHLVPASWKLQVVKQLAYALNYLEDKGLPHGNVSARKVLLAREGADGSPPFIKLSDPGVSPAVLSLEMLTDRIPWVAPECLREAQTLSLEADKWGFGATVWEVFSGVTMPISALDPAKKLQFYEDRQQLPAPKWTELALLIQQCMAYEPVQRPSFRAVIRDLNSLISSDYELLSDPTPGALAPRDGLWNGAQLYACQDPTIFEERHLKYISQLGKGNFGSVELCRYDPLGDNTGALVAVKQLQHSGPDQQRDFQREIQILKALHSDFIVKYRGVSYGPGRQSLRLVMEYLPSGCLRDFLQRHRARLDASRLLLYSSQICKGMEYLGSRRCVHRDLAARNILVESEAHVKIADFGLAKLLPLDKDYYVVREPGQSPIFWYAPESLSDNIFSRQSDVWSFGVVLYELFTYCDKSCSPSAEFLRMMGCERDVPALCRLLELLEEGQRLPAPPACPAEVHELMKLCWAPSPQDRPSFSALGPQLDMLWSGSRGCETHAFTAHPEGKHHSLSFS
Method in brief: (§1)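 Lysate from Molt4 and Ramos cells combined 1:2 at 10 mg/mL total protein met test compound and an aminopyrido-pyrimidine affinity matrix for 3 h in the cold. Captured JAK2 and JAK3, after elution, were measured by specific-antibody dot blot on an infrared system; dose-response curves yielded IC50.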

JAK2 = target: T2, JAK2 (Homo sapiens, UniProt O60674); assay: Kinobeads assay, JAK2; type: binding; conditions: mixed Molt4/Ramos cell lysate, dot blot detection
T2 construct: endogenous in cells; host or cells: Mixed Molt4/Ramos lysate (1:2)
Method in brief: as §1

T2 sequence (O60674 whole entry): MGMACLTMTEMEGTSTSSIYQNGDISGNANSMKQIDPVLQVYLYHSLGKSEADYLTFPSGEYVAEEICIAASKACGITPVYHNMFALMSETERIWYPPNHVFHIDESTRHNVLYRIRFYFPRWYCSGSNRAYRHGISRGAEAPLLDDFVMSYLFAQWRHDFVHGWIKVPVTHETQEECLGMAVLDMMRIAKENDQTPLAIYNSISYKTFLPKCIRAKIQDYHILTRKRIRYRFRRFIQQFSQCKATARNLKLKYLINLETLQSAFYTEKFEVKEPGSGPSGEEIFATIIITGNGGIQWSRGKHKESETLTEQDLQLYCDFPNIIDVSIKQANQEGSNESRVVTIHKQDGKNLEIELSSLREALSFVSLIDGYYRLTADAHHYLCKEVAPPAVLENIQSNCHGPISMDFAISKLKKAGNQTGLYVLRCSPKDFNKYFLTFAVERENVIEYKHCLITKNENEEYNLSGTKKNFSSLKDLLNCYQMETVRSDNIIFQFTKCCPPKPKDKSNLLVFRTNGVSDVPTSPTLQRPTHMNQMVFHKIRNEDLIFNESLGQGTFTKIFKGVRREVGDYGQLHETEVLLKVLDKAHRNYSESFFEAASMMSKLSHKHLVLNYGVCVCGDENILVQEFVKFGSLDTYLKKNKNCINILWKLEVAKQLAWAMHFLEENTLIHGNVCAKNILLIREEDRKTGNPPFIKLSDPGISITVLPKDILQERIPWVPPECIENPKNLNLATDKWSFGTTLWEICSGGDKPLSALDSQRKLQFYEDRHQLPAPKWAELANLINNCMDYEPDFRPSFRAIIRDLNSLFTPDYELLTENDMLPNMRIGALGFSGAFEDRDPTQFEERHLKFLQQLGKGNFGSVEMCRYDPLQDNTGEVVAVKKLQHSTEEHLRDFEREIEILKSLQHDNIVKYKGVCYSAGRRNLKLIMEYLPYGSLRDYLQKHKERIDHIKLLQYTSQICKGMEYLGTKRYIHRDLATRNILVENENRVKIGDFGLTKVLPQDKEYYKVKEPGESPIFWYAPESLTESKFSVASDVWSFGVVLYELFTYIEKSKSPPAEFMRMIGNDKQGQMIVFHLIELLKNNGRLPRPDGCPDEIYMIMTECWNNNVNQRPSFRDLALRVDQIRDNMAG

| Structure (SMILES) | IC50 (JAK3) [µM] | IC50 (JAK2) [µM] |
| --- | --- | --- |
| Cn1cc(Nc2ncc3cnn(Cc4ccccc4C(F)(F)F)c3n2)cn1 [Example 65, N-(1-Methyl-1H-pyrazol-4-yl)-1-(2-(trifluoromethyl)benzyl)-1H-pyrazolo[3,4-d]pyrimidin-6-amine] | < 0.1 | 1 to 10 |
| Cn1cc(Nc2ncc3cnn(Cc4cccc(C(F)(F)F)c4)c3n2)cn1 [Example 66, N-(1-Methyl-1H-pyrazol-4-yl)-1-(3-(trifluoromethyl)benzyl)-1H-pyrazolo[3,4-d]pyrimidin-6-amine] | 0.1 to 1 | ≥ 10 |
| Cn1cc(Nc2ncc3cnn(Cc4cccc(F)c4)c3n2)cn1 [Example 67, 1-(3-Fluorobenzyl)-N-(1-methyl-1H-pyrazol-4-yl)-1H-pyrazolo[3,4-d]pyrimidin-6-amine] | < 0.1 | 0.1 to 1 |
| Cn1cc(Nc2ncc3cnn(Cc4cccc(C#N)c4)c3n2)cn1 [Example 68, 3-((6-((1-Methyl-1H-pyrazol-4-yl)amino)-1H-pyrazolo[3,4-d]pyrimidin-1-yl)methyl)benzonitrile] | < 0.1 | 1 to 10 |
| COc1cccc(Cn2ncc3cnc(Nc4cnn(C)c4)nc32)c1 [Example 69, 1-(3-Methoxybenzyl)-N-(1-methyl-1H-pyrazol-4-yl)-1H-pyrazolo[3,4-d]pyrimidin-6-amine] | < 0.1 | 1 to 10 |
| Cn1cc(Nc2ncc3cnn(Cc4cccc(Cl)c4)c3n2)cn1 [Example 70, 1-(3-Chlorobenzyl)-N-(1-methyl-1H-pyrazol-4-yl)-1H-pyrazolo[3,4-d]pyrimidin-6-amine] | < 0.1 | 0.1 to 1 |
| COc1nn(CC(F)F)cc1Nc1ncc2cnn(-c3ccc(S(N)(=O)=O)cc3)c2n1 [Example 71, 4-(6-((1-(2,2-Difluoroethyl)-3-methoxy-1H-pyrazol-4-yl)amino)-1H-pyrazolo[3,4-d]pyrimidin-1-yl)benzenesulfonamide] | 0.1 to 1 | ≥ 10 |
| Cn1cc(Nc2ncc3cnn(Cc4cccc(Cl)c4F)c3n2)cn1 [Example 72, 1-(3-Chloro-2-fluorobenzyl)-N-(1-methyl-1H-pyrazol-4-yl)-1H-pyrazolo[3,4-d]pyrimidin-6-amine] | < 0.1 | 1 to 10 |
| OCCn1cc(Nc2ncc3cnn(Cc4c(F)cccc4F)c3n2)cn1 [Example 73, 2-(4-((1-(2,6-Difluorobenzyl)-1H-pyrazolo[3,4-d]pyrimidin-6-yl)amino)-1H-pyrazol-1-yl)ethanol] | < 0.1 | 0.1 to 1 |
| Cn1cc(Nc2ncc3cnn(-c4ccccc4)c3n2)cn1 [Example 74, N-(1-Methyl-1H-pyrazol-4-yl)-1-phenyl-1H-pyrazolo[3,4-d]pyrimidin-6-amine] | 0.1 to 1 | 1 to 10 |
| Cn1cc(Nc2ncc3cnn(Cc4ccccc4NS(C)(=O)=O)c3n2)cn1 [Example 75, N-(2-((6-((1-Methyl-1H-pyrazol-4-yl)amino)-1H-pyrazolo[3,4-d]pyrimidin-1-yl)methyl)phenyl)methanesulfonamide] | < 0.1 | 0.1 to 1 |
| Cn1cc(Nc2ncc3cnn(Cc4ccccc4)c3n2)cn1 [Example 76, 1-Benzyl-N-(1-methyl-1H-pyrazol-4-yl)-1H-pyrazolo[3,4-d]pyrimidin-6-amine] | < 0.1 | 1 to 10 |
| Cn1cc(Nc2ncc3cnn(CCc4ccccc4F)c3n2)cn1 [Example 77, 1-(2-Fluorophenethyl)-N-(1-methyl-1H-pyrazol-4-yl)-1H-pyrazolo[3,4-d]pyrimidin-6-amine] | 0.1 to 1 | ≥ 10 |
| Cn1cc(Nc2ncc3cnn(Cc4ccc(F)c(F)c4)c3n2)cn1 [Example 78, 1-(3,4-Difluorobenzyl)-N-(1-methyl-1H-pyrazol-4-yl)-1H-pyrazolo[3,4-d]pyrimidin-6-amine] | 0.1 to 1 | 1 to 10 |
| Cn1cc(Nc2ncc3cnn(Cc4cc(F)cc(F)c4)c3n2)cn1 [Example 79, 1-(3,5-Difluorobenzyl)-N-(1-methyl-1H-pyrazol-4-yl)-1H-pyrazolo[3,4-d]pyrimidin-6-amine] | < 0.1 | 0.1 to 1 |
| Cn1cc(Nc2ncc3cnn(Cc4cccc(C(N)=O)c4)c3n2)cn1 [Example 80, 3-((6-((1-Methyl-1H-pyrazol-4-yl)amino)-1H-pyrazolo[3,4-d]pyrimidin-1-yl)methyl)benzamide] | < 0.1 | 1 to 10 |

| Structure (SMILES) | IC50 (JAK3) [µM] | IC50 (JAK2) [µM] |
| --- | --- | --- |
| Cn1cc(Nc2ncc3cnn(CCc4cccc(F)c4)c3n2)cn1 [Example 81, 1-(3-Fluorophenethyl)-N-(1-methyl-1H-pyrazol-4-yl)-1H-pyrazolo[3,4-d]pyrimidin-6-amine] | 0.1 to 1 | 1 to 10 |
| Cn1cc(Nc2ncc3cnn(CCc4ccc(F)cc4)c3n2)cn1 [Example 82, 1-(4-Fluorophenethyl)-N-(1-methyl-1H-pyrazol-4-yl)-1H-pyrazolo[3,4-d]pyrimidin-6-amine] | 0.1 to 1 | 1 to 10 |
| Cc1cccc(Cn2ncc3cnc(Nc4cnn(C)c4)nc32)c1 [Example 83, N-(1-Methyl-1H-pyrazol-4-yl)-1-(3-methylbenzyl)-1H-pyrazolo[3,4-d]pyrimidin-6-amine] | < 0.1 | 1 to 10 |
| Cc1ccccc1Cn1ncc2cnc(Nc3cnn(C)c3)nc21 [Example 84, N-(1-Methyl-1H-pyrazol-4-yl)-1-(2-methylbenzyl)-1H-pyrazolo[3,4-d]pyrimidin-6-amine] | < 0.1 | 1 to 10 |
| Cn1cc(Nc2ncc3cnn(Cc4ccccc4OC(F)(F)F)c3n2)cn1 [Example 85, N-(1-Methyl-1H-pyrazol-4-yl)-1-(2-(trifluoromethoxy)benzyl)-1H-pyrazolo[3,4-d]pyrimidin-6-amine] | < 0.1 | 1 to 10 |
| Cn1cc(Nc2ncc3cnn(Cc4cccc(OC(F)(F)F)c4)c3n2)cn1 [Example 86, N-(1-Methyl-1H-pyrazol-4-yl)-1-(3-(trifluoromethoxy)benzyl)-1H-pyrazolo[3,4-d]pyrimidin-6-amine] | 0.1 to 1 | ≥ 10 |
| COc1ccccc1Cn1ncc2cnc(Nc3cnn(C)c3)nc21 [Example 87, 1-(2-Methoxybenzyl)-N-(1-methyl-1H-pyrazol-4-yl)-1H-pyrazolo[3,4-d]pyrimidin-6-amine] | < 0.1 | 1 to 10 |
| Fc1ccccc1Cn1ncc2cnc(Nc3cn[nH]c3)nc21 [Example 88, 1-(2-Fluorobenzyl)-N-(1H-pyrazol-4-yl)-1H-pyrazolo[3,4-d]pyrimidin-6-amine] | < 0.1 | 1 to 10 |
| CC(O)Cn1cc(Nc2ncc3cnn(Cc4ccccc4F)c3n2)cn1 (centres unmarked) [Example 89, 1-(4-((1-(2-Fluorobenzyl)-1H-pyrazolo[3,4-d]pyrimidin-6-yl)amino)-1H-pyrazol-1-yl)propan-2-ol] | < 0.1 | 0.1 to 1 |
| COc1cccc(F)c1Cn1ncc2cnc(Nc3cnn(C)c3)nc21 [Example 90, 1-(2-Fluoro-6-methoxybenzyl)-N-(1-methyl-1H-pyrazol-4-yl)-1H-pyrazolo[3,4-d]pyrimidin-6-amine] | < 0.1 | 0.1 to 1 |
| COc1ccc(F)cc1Cn1ncc2cnc(Nc3cnn(C)c3)nc21 [Example 91, 1-(5-Fluoro-2-methoxybenzyl)-N-(1-methyl-1H-pyrazol-4-yl)-1H-pyrazolo[3,4-d]pyrimidin-6-amine] | < 0.1 | 0.1 to 1 |
| Cn1cc(Nc2ncc3cnn(Cc4ccccc4CO)c3n2)cn1 [Example 92, (2-((6-((1-Methyl-1H-pyrazol-4-yl)amino)-1H-pyrazolo[3,4-d]pyrimidin-1-yl)methyl)phenyl)methanol] | < 0.1 | 1 to 10 |
| COc1cccc(Cn2ncc3cnc(Nc4cnn(C)c4)nc32)c1F [Example 93, 1-(2-Fluoro-3-methoxybenzyl)-N-(1-methyl-1H-pyrazol-4-yl)-1H-pyrazolo[3,4-d]pyrimidin-6-amine] | 0.1 to 1 | ≥ 10 |
| COc1ccc(F)c(Cn2ncc3cnc(Nc4cnn(C)c4)nc32)c1 [Example 94, 1-(2-Fluoro-5-methoxybenzyl)-N-(1-methyl-1H-pyrazol-4-yl)-1H-pyrazolo[3,4-d]pyrimidin-6-amine] | < 0.1 | 1 to 10 |
| CC(=O)n1cc(Nc2ncc3cnn(Cc4ccccc4F)c3n2)cn1 [Example 95, 1-(4-((1-(2-Fluorobenzyl)-1H-pyrazolo[3,4-d]pyrimidin-6-yl)amino)-1H-pyrazol-1-yl)ethanone] | < 0.1 | 1 to 10 |
